From patent US20230399312A1, “SUBSTITUTED PYRIMIDINES AND METHODS OF USE” (THERAVANCE BIOPHARMA R&D IP, LLC, priority 2020, published 2023)

Legend:
[1] = target: T1, recombinant human ALK5 (TGF-βR1) protein (Homo sapiens, UniProt P36897); experiment: Biochemical ALK5 (TGF-βR1) assay to measure pKi (LANCE Ultra ULight kinase assay); conditions: apparent pKi, converted from pIC50 by Cheng-Prusoff
T1 construct: purchased Life Technologies PR9075A
T1 sequence (P36897 34-503): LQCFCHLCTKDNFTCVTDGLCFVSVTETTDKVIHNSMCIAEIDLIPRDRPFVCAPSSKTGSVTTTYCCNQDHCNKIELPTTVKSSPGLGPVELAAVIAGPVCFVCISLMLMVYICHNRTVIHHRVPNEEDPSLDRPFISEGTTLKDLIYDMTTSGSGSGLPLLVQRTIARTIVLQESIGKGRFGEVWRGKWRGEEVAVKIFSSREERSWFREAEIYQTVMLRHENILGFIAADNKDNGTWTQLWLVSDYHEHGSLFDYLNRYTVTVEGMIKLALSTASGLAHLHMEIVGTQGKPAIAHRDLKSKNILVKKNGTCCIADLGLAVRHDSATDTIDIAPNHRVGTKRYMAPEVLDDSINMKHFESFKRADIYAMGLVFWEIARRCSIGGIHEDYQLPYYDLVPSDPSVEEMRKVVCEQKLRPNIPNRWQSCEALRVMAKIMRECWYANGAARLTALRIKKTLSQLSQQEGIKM
In short: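 Enzyme preincubated with compound for 60 min at room temperature, then reacted with ATP (125 μM as 5× stock) for 60 min at 37 °C. Stopped with EDTA plus Eu-anti-phospho-Topoisomerase 2-alpha (Thr1342) antibody and read by TR-FRET at 665 nm. pIC50 from a 4-parameter fit, converted to pKi by Cheng-Prusoff.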

[2] = test system: TGF-β-stimulated SMAD3 phosphorylation in BEAS-2B cells; experiment: Cellular ALK5 potency assay, inhibition of TGF-β stimulated pSMAD3 formation in BEAS-2B cells; type: cell-based; conditions: Homo sapiens, pSMAD3, TGF-β 10 ng/mL, read-out: BEAS2B pIC50 (converted)
In short: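 Read-out is AlphaLISA detection of phospho-SMAD3 in lysates of BEAS-2B human lung epithelial cells. Cells are exposed to compound for 1 hour, then to 10 ng/mL TGF-β (final) for 30 minutes. Values are pIC50 from concentration–response curves.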

Row | Ki [1] | SMILES | IC50 [2]
1 | 3.98 to 31.6 nM | Cc1cccc(-c2nccc(Nc3ccnc(Nc4csc(C(=O)O)n4)n3)n2)n1 [Compound 585, 4-[[4-[[2-(6-methyl-2-pyridyl)pyrimidin-4-yl]amino]pyrimidin-2-yl]amino]thiazole-2-carboxylic acid] | 200 to 1260 nM
2 | 0.398 to 3.16 nM | COC(=O)Cc1ccc(Nc2nccc(Nc3nc(-c4cccc(C)n4)nn4cccc34)n2)cc1 [Compound 1019, methyl 2-[4-[[4-[[2-(6-methyl-2-pyridyl)pyrrolo[2,1-f][1,2,4]triazin-4-yl]amino]pyrimidin-2-yl]amino]phenyl]acetate] | 200 to 1260 nM
3 | 0.0398 to 0.316 nM | Cc1cccc(-c2nccc(Nc3ccnc(Nc4ccc(NCC5(O)CNC5)cc4)n3)n2)n1 [Compound 490, 3-[[4-[[4-[[2-(6-methyl-2-pyridyl)pyrimidin-4-yl]amino]pyrimidin-2-yl]amino]anilino]methyl] azetidin-3-ol] | 25.1 to 158 nM
4 | 0.0398 to 0.316 nM | Cc1cccc(-c2nccc(Nc3ccnc(Nc4ccc(C(=O)OC[C@H]5CCCNC5)nc4)n3)n2)n1 [Compound 620, [(3S)-3-piperidyl]methyl 5-[[4-[[2-(6-methyl-2-pyridyl)pyrimidin-4-yl]amino]pyrimidin-2-yl]amino]pyridine-2-carboxylate] | 25.1 to 158 nM
5 | 0.0398 to 0.316 nM | Cc1cccc(-c2nccc(Nc3ccnc(Nc4csc(C(=O)OC[C@@H]5CCC[C@H](N)C5)c4)n3)n2)n1 [Compound 621, [(1R,3S)-3-aminocyclohexyl]methyl 4-[[4-[[2-(6-methyl-2-pyridyl)pyrimidin-4-yl]amino]pyrimidin-2-yl]amino]thiophene-2-carboxylate] | 25.1 to 158 nM
6 | 0.398 to 3.16 nM | COCCc1ccc(Nc2nccc(Nc3ccnc(-c4cccc(C)n4)n3)n2)cc1 [Compound 401, N2-[4-(2-methoxyethyl)phenyl]-N4-[2-(6-methyl-2-pyridyl)pyrimidin-4-yl]pyrimidine-2,4-diamine] | 25.1 to 158 nM
7 | 0.0398 to 0.316 nM | Cc1cccc(-c2nc(Nc3ccnc(Nc4ccc(NC5CCNCC5)cc4)n3)c3cccn3n2)n1 [Compound 1042, N4-[2-(6-methyl-2-pyridyl)pyrrolo[2,1-f][1,2,4]triazin-4-yl]-N2-[4-(4-piperidylamino)phenyl] pyrimidine-2,4-diamine] | 25.1 to 158 nM
8 | 3.98 to 31.6 nM | Cc1cccc(-c2nccc(Nc3ccnc(Nc4cc(C(=O)OC5CNC5)ccn4)n3)n2)n1 [Compound 579, azetidin-3-yl 2-[[4-[[2-(6-methyl-2-pyridyl)pyrimidin-4-yl]amino]pyrimidin-2-yl]amino]pyridine-4-carboxylate] | 25.1 to 158 nM
9 | 0.0398 to 0.316 nM | Cc1cccc(-c2nccc(Nc3ccnc(Nc4ccc(C(=O)OC[C@H]5CCCN5)nc4)n3)n2)n1 [Compound 577, [(2R)-pyrrolidin-2-yl]methyl 5-[[4-[[2-(6-methyl-2-pyridyl)pyrimidin-4-yl]amino]pyrimidin-2-yl]amino]pyridine-2-carboxylate] | 25.1 to 158 nM
10 | 0.0398 to 0.316 nM | Cc1cccc(-c2nccc(Nc3ccnc(Nc4ccc(CN5CCC(C(=O)O)CC5)cc4)n3)n2)n1 [Compound 484, 1-[[4-[[4-[[2-(6-methyl-2-pyridyl)pyrimidin-4-yl]amino]pyrimidin-2-yl]amino]phenyl]methyl] piperidine-4-carboxylic acid] | 200 to 1260 nM
11 | 0.0398 to 0.316 nM | Cc1cccc(-c2nccc(Nc3ccnc(Nc4ccc(C(=O)OC5CCNCC5)nc4)n3)n2)n1 [Compound 561, 4-piperidyl 5-[[4-[[2-(6-methyl-2-pyridyl)pyrimidin-4-yl]amino]pyrimidin-2-yl]amino]pyridine-2-carboxylate] | 25.1 to 158 nM
12 | 0.398 to 3.16 nM | Cc1cccc(-c2nccc(Nc3ccnc(Nc4ccc(NS(=O)(=O)C5CCNC5)cc4)n3)n2)n1 (stereo not drawn) [Compound 413, N-[4-[[4-[[2-(6-methyl-2-pyridyl)pyrimidin-4-yl]amino]pyrimidin-2-yl]amino]phenyl]pyrrolidine-3-sulfonamide] | 200 to 1260 nM
13 | 0.0398 to 0.316 nM | Cc1cccc(-c2nccc(Nc3ccnc(Nc4ccc(CN5CCC[C@@H](C(=O)O)C5)cc4)n3)n2)n1 [Compound 428, (3R)-1-[[4-[[4-[[2-(6-methyl-2-pyridyl)pyrimidin-4-yl]amino]pyrimidin-2-yl]amino]phenyl]methyl] piperidine-3-carboxylic acid] | 200 to 1260 nM
14 | 0.398 to 3.16 nM | Cc1cccc(-c2nc(CC(=O)NCC(C)C)cc(Nc3ccnc(Nc4ccc(N5CCNCC5)cc4)n3)n2)n1 [Compound 1009, N-isobutyl-2-[2-(6-methyl-2-pyridyl)-6-[[2-(4-piperazin-1-ylanilino)pyrimidin-4-yl]amino]pyrimidin-4-yl] acetamide] | 200 to 1260 nM
15 | 0.398 to 3.16 nM | Cc1cccc(-c2nccc(Nc3ccnc(Nc4cncc(C(=O)OC[C@@H]5CCNC5)c4)n3)n2)n1 [Compound 570, [(3R)-pyrrolidin-3-yl]methyl 5-[[4-[[2-(6-methyl-2-pyridyl)pyrimidin-4-yl]amino]pyrimidin-2-yl]amino]pyridine-3-carboxylate] | 25.1 to 158 nM
16 | 0.0398 to 0.316 nM | Cc1cccc(-c2nccc(Nc3ccnc(Nc4nc(C(=O)NC5(CO)CCNC5)cs4)n3)n2)n1 (stereo not drawn) [Compound 520, N-[3-(hydroxymethyl)pyrrolidin-3-yl]-2-[[4-[[2-(6-methyl-2-pyridyl)pyrimidin-4-yl]amino]pyrimidin-2-yl]amino]thiazole-4-carboxamide] | 25.1 to 158 nM

Second part, the compound before the results:

Row | SMILES | Ki [1] | IC50 [2]
17 | Cc1cccc(-c2nccc(Nc3ccnc(Nc4ccc(C5CCNCC5)cc4)n3)n2)n1 [Compound 133, N4-[2-(6-methyl-2-pyridyl)pyrimidin-4-yl]-N2-[4-(4-piperidyl)phenyl]pyrimidine-2,4-diamine] | 0.0398 to 0.316 nM | 25.1 to 158 nM
18 | Fc1ccc(-c2nccc(Nc3ccnc(Nc4ccc(N5CCOCC5)cc4)n3)n2)c(F)c1 [Compound 35, N4-[2-(2,4-difluorophenyl)pyrimidin-4-yl]-N2-(4-morpholinophenyl) pyrimidine-2,4-diamine] | 3.98 to 31.6 nM | 25.1 to 158 nM
19 | Cc1cccc(-c2nccc(Nc3ccnc(Nc4cccc(N5CCNCC5)c4)n3)n2)n1 [Compound 322, N4-[2-(6-methyl-2-pyridyl)pyrimidin-4-yl]-N2-(3-piperazin-1-ylphenyl)pyrimidine-2,4-diamine] | 0.0398 to 0.316 nM | 25.1 to 158 nM
20 | Cc1cccc(-c2nccc(Nc3ccnc(Nc4cccc(NC(=O)C5(O)CCNC5)c4)n3)n2)n1 (stereo not drawn) [Compound 203, 3-hydroxy-N-[3-[[4-[[2-(6-methyl-2-pyridyl)pyrimidin-4-yl]amino]pyrimidin-2-yl]amino]phenyl]pyrrolidine-3-carboxamide] | 0.0398 to 0.316 nM | ≤ 20 nM
21 | Cc1cccc(-c2nccc(Nc3ccnc(Nc4ccc(NC5CNC5)cc4)n3)n2)n1 [Compound 199, N2-[4-(azetidin-3-ylamino)phenyl]-N4-[2-(6-methyl-2-pyridyl)pyrimidin-4-yl]pyrimidine-2,4-diamine] | 0.0398 to 0.316 nM | 25.1 to 158 nM
22 | Cc1cccc(-c2nccc(Nc3ccnc(Nc4ccc(-c5cnn(C)c5)cc4)n3)n2)n1 [Compound 56, N2-[4-(1-methylpyrazol-4-yl)phenyl]-N4-[2-(6-methyl-2-pyridyl)pyrimidin-4-yl]pyrimidine-2,4-diamine] | 0.398 to 3.16 nM | 25.1 to 158 nM
23 | Cc1cccc(-c2nccc(Nc3ccnc(Nc4cccc(NC(=O)NC5CCNC5)c4)n3)n2)n1 (stereo not drawn) [Compound 168, 1-[3-[[4-[[2-(6-methyl-2-pyridyl)pyrimidin-4-yl]amino]pyrimidin-2-yl]amino]phenyl]-3-pyrrolidin-3-yl-urea] | 0.0398 to 0.316 nM | 25.1 to 158 nM
24 | Cc1cccc(-c2nccc(Nc3ccnc(Nc4ccc(F)c(CN5C6CCC5CNC6)c4)n3)n2)n1 [Compound 384, N2-[3-(3,8-diazabicyclo[3.2.1]octan-8-ylmethyl)-4-fluoro-phenyl]-N4-[2-(6-methyl-2-pyridyl)pyrimidin-4-yl]pyrimidine-2,4-diamine] | 0.0398 to 0.316 nM | 25.1 to 158 nM
25 | Cc1cccc(-c2nccc(Nc3ccnc(Nc4ccc(NS(=O)(=O)N(C)C)cc4)n3)n2)n1 [Compound 371, 4-[[2-[4-(dimethylsulfamoylamino)anilino]pyrimidin-4-yl]amino]-2-(6-methyl-2-pyridyl)pyrimidine] | 0.398 to 3.16 nM | 25.1 to 158 nM
26 | Cc1cccc(-c2nccc(Nc3ccnc(Nc4ccc(N5CCN(Cc6ccccc6)CC5)cc4)n3)n2)n1 [Compound 27, N2-[4-(4-benzylpiperazin-1-yl)phenyl]-N4-[2-(6-methyl-2-pyridyl)pyrimidin-4-yl]pyrimidine-2,4-diamine] | 0.0398 to 0.316 nM | 25.1 to 158 nM
27 | Cc1cccc(-c2nccc(Nc3ccnc(Nc4ccc(N5CCC(N)CC5)cc4)n3)n2)n1 [Compound 324, N2-[4-(4-amino-1-piperidyl)phenyl]-N4-[2-(6-methyl-2-pyridyl)pyrimidin-4-yl]pyrimidine-2,4-diamine] | 0.0398 to 0.316 nM | 25.1 to 158 nM
